Here are results for 2 compounds from patent US12291548B2, “Compounds, compositions, and methods for the treatment of disease” (priority 2018, dated 2025).

In assay [1] the target is T1, HAQ isoform human STING (hSTING) (Homo sapiens, UniProt Q86WV6, G230A/H232R/R293Q/R71H).
T1 construct: THP1 cells naturally expressing HAQ isoform human STING (hSTING); endogenous in cells; host or cells: THP1 cells stably transfected with ISRE-inducible Lucia and NF-κB inducible SEAP reporters
In words: THP1 dual reporter assay (ISRE-inducible Lucia, NF-κB inducible SEAP). In kind it is cell-based. To be noted: THP1 cells naturally expressing HAQ hSTING, 20 h incubation, vs DMSO-treated sample; for ISRE (IRF) reporter activity, induction: QUANTI-luc. How it is done: THP1 cells naturally expressing HAQ isoform human STING (hSTING), stably transfected with an ISRE-inducible Lucia and NF-κB inducible SEAP were treated with various concentrations of Cmd 1 or DMSO control. After 20 h incubation, levels of Lucia and SEAP were measured using QUANTI-luc and QUANTI-Blue to measure and ISRE and NF-κB reporter activity respectively. Percent induction was calculated from fold change in activity compared to DMSO-treated sample.
THP1 cells naturally expressing HAQ isoform human STING (hSTING), stably transfected with an ISRE-inducible Lucia and NF-κB inducible SEAP were treated with various concentrations of Cmd 1 or DMSO control. After 20 h incubation, levels of Lucia and SEAP were measured using QUANTI-luc and QUANTI-Blue to measure and ISRE and NF-κB reporter activity respectively. Percent induction was calculated from fold change in activity compared to DMSO-treated sample. EC50 values were generated by curve fit in Xlfit.
THP1 cells naturally expressing HAQ isoform human STING (hSTING), stably transfected with an ISRE-inducible Lucia and NF-κB inducible SEAP were treated with various concentrations of Cmd 2 or DMSO control. After 20 h incubation, levels of Lucia and SEAP were measured using QUANTI-luc and QUANTI-Blue to measure and ISRE and NF-κB reporter activity, respectively, in Xlfit. Percent induction was calculated from fold change in activity compared to DMSO-treated sample.
THP1 cells naturally expressing HAQ isoform human STING (hSTING), stably transfected with an ISRE-inducible Lucia and NF-κB inducible SEAP were treated with various concentrations of Cmd 2 or DMSO control. After 20 h incubation, levels of Lucia and SEAP were measured using QUANTI-luc and QUANTI-Blue to measure and ISRE and NF-κB reporter activity, respectively, in Xlfit. Percent induction was calculated from fold change in activity compared to DMSO-treated sample. EC50 values were generated by curve fit.
In general terms: A reporter such as luciferase makes a cellular process visible.

Another assay deals with T2, mouse STING (Mus musculus, UniProt Q3TBT3).
T2 construct: Mouse derived RAW macrophages stably transfected with an ISRE-inducible Lucia; endogenous in cells; host or cells: Mouse derived RAW macrophages stably transfected with an ISRE-inducible Lucia reporter
T2 sequence (Q3TBT3 1-378): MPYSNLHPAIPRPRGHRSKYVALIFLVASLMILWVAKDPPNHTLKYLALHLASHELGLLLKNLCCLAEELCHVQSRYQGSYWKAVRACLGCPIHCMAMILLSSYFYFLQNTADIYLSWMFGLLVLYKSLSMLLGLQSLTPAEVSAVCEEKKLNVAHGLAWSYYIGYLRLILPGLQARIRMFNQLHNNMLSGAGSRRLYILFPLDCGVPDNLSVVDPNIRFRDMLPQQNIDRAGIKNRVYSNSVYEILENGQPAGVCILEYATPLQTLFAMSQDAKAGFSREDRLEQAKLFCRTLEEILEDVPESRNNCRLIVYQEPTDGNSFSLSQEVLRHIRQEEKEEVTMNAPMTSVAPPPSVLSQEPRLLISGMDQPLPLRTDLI
The assay can be described thus: RAW macrophage ISRE-inducible Lucia reporter assay. Format: cell-based. To be noted: mouse derived RAW macrophages, 20 h incubation, QUANTI-luc, vs DMSO-treated sample. How it is done: Mouse derived RAW macrophages stably transfected with an ISRE-inducible Lucia were treated with various concentrations of compound 1 or DMSO control. After 20 h incubation, levels of Lucia were measured using QUANTI-luc to measure and ISRE reporter activity. Percent induction was calculated from fold change in activity compared to DMSO-treated sample.
Mouse derived RAW macrophages stably transfected with an ISRE-inducible Lucia were treated with various concentrations of compound 1 or DMSO control. After 20 h incubation, levels of Lucia were measured using QUANTI-luc to measure and ISRE reporter activity. Percent induction was calculated from fold change in activity compared to DMSO-treated sample. EC50 values were generated by curve fit in Xlfit.
Mouse derived RAW macrophages stably transfected with an ISRE-inducible Lucia were treated with various concentrations of compound 2 or DMSO control. After 20 h incubation, levels of Lucia were measured using QUANTI-luc to measure and ISRE reporter activity. Percent induction was calculated from fold change in activity compared to DMSO-treated sample.
Mouse derived RAW macrophages stably transfected with an ISRE-inducible Lucia were treated with various concentrations of compound 2 or DMSO control. After 20 h incubation, levels of Lucia were measured using QUANTI-luc to measure and ISRE reporter activity. […]

The next assay concerns the target STING CTD (Homo sapiens, UniProt Q86WV6). In words: Thermal shift assay with STING CTD. Format: binding. The settings on record: 0.1 mg/mL STING CTD, compound 2 mM to 0.05 uM, SYPRO Orange, 25-80° C. How it is done:
Thermal shift assay was conducted with 0.1 mg/mL of STING CTD with various dilutions of compound 1 from 2 mM to 0.05 uM in 10 mM HEPES (pH 7.5), 140 mM NaCl and a 5 fold dilution of SYPRO Orange dye (Invitrogen). The fluorescence signal as a function of temperature was recorded using a Real Time PCR machine (Thermo Fisher). The temperature gradient was performed in the range of 25−80° C. with a ramp of 0.2° C. over the course of 60 min. Data were analyzed with the Thermal Shift Software (Thermo Fisher), DSF analysis, and the Derivative model was used to fit the fluorescence data to obtain the midpoint temperature for the thermal protein unfolding transition (Tm) using the curve-fitting software Prism.

T1 sequence (Q86WV6 whole entry R71H/G230A/H232R/R293Q, canonical isoform): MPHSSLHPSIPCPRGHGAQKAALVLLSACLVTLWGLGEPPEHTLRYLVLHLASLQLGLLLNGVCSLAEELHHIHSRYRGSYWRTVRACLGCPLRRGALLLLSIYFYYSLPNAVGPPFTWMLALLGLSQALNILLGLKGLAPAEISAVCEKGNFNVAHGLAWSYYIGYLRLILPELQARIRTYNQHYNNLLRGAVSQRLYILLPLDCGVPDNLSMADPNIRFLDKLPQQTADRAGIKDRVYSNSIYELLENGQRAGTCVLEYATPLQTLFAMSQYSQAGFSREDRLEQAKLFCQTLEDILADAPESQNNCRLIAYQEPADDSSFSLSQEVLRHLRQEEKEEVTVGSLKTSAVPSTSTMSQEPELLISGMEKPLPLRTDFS
Chain of STING CTD (Q86WV6 135-379 limits assumed): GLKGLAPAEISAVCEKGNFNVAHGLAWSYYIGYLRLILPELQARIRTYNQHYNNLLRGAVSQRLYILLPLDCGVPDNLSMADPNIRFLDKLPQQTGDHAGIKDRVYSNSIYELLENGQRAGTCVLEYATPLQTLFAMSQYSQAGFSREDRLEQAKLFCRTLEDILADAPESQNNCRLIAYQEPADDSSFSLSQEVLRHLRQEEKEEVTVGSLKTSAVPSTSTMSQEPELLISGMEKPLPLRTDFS

Consider `Nc1ncnc2c1ncn2[C@@H]1O[C@@H]2COP(=O)(S)O[C@@H]3[C@H](F)[C@@H](COP(=O)(O)O[C@@H]1[C@@H]2F)O[C@H]3n1ccc(=O)[nH]c1=O` (stereo partly drawn) [compound 1], for which the “ISRE (IRF) reporter activity, induction” value in assay [1] was “activates natural allelic variant HAQ to induce IRF”; on mouse STING, “activates mouse STING to induce IRF in RAW macrophages”. The “Binding to STING (thermal shift, Tm)” value at STING CTD is given as “binds to STING with high affinity”.

`CCCCCCCCCCOc1ccc(C(=O)Oc2ccc(CSP3(=O)OC[C@H]4O[C@@H](n5cnc6c(N)ncnc65)[C@H](OP(=O)(O)OC[C@H]5O[C@@H](n6ccc(=O)[nH]c6=O)[C@H](O3)[C@@H]5F)[C@@H]4F)cc2)cc1` (stereo partly drawn) [compound 2]: the “NF-κB reporter activity, induction” value in assay [1] (QUANTI-Blue (SEAP)) was “activates natural allelic variant HAQ to induce IRF and NF-κB”. The “ISRE (IRF) reporter activity, induction” value in assay [1] is “activates natural allelic variant HAQ to induce IRF”; at mouse STING, “activates mouse STING to induce IRF in RAW macrophages”.
